# Measurements published in patent publication US11697648B2, “Fused pyrimidine pyridinone compounds as JAK inhibitors” (THERAVANCE BIOPHARMA R&D IP, LLC, priority 2019, dated 2023).
# How the values were obtained:
# Caco-2 cell monolayers = test: Caco-2 permeation assay; assay type: in vitro ADME; conditions: 5 μM, A-B direction, with Verapamil (25 μM)
# In short: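 Compounds tested at 5 μM in duplicate across Caco-2 monolayers, apical-to-basolateral, with 25 μM verapamil to block P-gp, at 37° C., 5% CO2. Apical and basal samples taken at 0 and 120 min, analysed by LC-MS/MS; Papp (cm/sec) calculated as dQ/(dt×Area×concentration).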
# [1] = test system: oxazolone-induced colitis; test: Mouse model of oxazolone-induced colitis; assay type: in vivo, BALB/C mice
# Procedure: Assay 6: Mouse Model of Oxazolone-Induced Colitis
# Oxazolone-induced colitis is an experimental model that has a histological resemblance to human ulcerative colitis (Heller et al. Immunology, 2002, 17, 629-638). Adult BALB/C mice from Harlan were used in the assay. On day 1, animals were lightly anesthetized with isoflurane and the hairs between the shoulder were carefully removed before oxazolone (4%, 150 μL, 4:1 acetone: olive oil formulation) or vehicle solution was slowly applied for skin sensitization. Seven days after skin sensitization, the mice were fasted around 6 hours prior, anesthetized with ketamine/xylazine injection, and a 1 mL syringe equipped with a 3.5-F catheter, filled with oxazolone solution, was inserted carefully about 4 cm into the colon of the mouse. Following insertion, 50 μL of the oxazolone solution (0.8% in 1:1 ethanol:water formulation) was injected very slowly (over 30 sec using an injection pump) into the colon. Drug treatment (PO, QD or BID or TID) or vehicle was initiated a day prior to the oxazolone intrarectal (IR) challenge. Two-day post oxazolone intrarectal challenge, the disease was assessed by treatment-blinded experimenters for each mouse according to the criteria score: stool consistency score (0, normal; 2, loose; 4, diarrhea), gross bleeding score (0, absence; 2, blood tinged; 4, presence); Combined stool score endpoint=stool consistency score+stool blood score.
# Select compounds were tested in the assay.
# JAK3 = JAK3 (Homo sapiens (Human), UniProt P52333); test: Biochemical JAK3 kinase assay (LanthaScreen); conditions: for JAK3 (pKi)-JAK1 (pKi): selectivity JAK3 over JAK1, difference of pKi
# Chain of JAK3 (P52333 whole entry): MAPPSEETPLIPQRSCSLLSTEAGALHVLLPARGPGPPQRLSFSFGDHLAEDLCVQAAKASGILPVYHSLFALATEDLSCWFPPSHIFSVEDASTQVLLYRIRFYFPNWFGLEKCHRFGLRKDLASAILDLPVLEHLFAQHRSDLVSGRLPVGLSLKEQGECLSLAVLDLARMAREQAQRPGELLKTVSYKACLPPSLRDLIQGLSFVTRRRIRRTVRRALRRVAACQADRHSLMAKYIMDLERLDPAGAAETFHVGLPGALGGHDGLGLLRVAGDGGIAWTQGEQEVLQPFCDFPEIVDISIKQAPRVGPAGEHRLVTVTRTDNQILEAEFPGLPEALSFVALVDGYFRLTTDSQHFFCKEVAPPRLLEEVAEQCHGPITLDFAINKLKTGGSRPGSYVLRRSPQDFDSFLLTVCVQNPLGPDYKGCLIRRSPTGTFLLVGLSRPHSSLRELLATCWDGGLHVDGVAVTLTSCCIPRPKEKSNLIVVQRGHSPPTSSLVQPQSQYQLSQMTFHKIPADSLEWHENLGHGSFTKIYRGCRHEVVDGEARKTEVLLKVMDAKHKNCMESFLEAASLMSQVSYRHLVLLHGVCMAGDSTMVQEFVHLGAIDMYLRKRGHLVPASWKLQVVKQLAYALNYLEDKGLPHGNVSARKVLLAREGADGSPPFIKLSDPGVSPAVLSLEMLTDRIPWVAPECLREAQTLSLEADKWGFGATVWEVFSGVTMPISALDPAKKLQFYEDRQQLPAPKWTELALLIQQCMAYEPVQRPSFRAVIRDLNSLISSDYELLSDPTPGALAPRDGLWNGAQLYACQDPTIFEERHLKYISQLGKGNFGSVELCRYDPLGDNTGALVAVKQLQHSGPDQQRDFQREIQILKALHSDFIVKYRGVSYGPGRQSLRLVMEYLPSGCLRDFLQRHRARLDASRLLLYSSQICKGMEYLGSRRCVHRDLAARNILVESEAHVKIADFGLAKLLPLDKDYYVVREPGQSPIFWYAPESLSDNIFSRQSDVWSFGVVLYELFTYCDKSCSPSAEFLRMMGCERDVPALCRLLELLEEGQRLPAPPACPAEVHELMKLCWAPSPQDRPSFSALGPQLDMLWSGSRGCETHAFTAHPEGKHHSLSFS
# In short: (§1)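 GST-JAK + GFP-STAT1 peptide, HEPES pH 7.5/MgCl2/EGTA/Brij-35 buffer; cpd preincubation 1 h RT; ATP start, 1 h RT; stop with 10 mM EDTA + 2 nM Tb-anti-pSTAT1; TR-FRET 520/495. 4-parameter IC50 → pKi (Cheng-Prusoff).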
# JAK2 = JAK2 (Homo sapiens (Human), UniProt O60674); test: Biochemical JAK2 kinase assay (LanthaScreen)
# Chain of JAK2 (O60674 whole entry): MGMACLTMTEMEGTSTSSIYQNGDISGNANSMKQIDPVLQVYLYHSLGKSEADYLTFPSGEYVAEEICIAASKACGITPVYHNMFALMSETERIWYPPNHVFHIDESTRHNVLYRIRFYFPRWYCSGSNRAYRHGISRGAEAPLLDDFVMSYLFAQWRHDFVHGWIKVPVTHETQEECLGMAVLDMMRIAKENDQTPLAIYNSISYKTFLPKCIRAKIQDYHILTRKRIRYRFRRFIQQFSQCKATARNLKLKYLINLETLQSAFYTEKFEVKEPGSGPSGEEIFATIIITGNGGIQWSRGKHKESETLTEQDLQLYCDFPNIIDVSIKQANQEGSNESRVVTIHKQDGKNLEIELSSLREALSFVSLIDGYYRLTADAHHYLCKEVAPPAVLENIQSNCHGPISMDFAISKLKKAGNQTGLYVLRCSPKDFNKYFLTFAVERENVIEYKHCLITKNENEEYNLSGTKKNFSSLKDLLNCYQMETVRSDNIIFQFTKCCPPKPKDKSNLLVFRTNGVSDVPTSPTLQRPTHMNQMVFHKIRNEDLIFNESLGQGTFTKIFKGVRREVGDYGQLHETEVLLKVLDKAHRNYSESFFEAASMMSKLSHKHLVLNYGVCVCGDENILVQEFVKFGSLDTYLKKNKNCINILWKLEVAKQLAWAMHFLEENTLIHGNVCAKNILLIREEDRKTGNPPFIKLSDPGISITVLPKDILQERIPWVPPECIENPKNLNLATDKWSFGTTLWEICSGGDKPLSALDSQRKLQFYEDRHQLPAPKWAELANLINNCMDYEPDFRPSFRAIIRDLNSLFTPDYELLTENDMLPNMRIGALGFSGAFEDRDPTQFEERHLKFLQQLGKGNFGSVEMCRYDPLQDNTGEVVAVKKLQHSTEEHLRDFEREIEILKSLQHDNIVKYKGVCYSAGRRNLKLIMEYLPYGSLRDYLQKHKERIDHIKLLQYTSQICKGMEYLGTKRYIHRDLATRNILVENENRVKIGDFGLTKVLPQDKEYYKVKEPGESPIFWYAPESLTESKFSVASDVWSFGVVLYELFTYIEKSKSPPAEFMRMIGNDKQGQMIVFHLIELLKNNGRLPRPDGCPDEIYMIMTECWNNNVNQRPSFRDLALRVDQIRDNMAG
# In short: as §1
Compound,Caco Kp (Caco-2 cell monolayers),"combined stool score endpoint as compared with vehicle treated animals ([1]; dose of 1 mg/kg (PO, BID))","combined stool score endpoint as compared with vehicle treated animals ([1]; dose of 3 mg/kg (PO, BID))",JAK 3 (pKi) (JAK3),JAK3 (pKi)-JAK1 (pKi) (JAK3),JAK 2 (pKi) (JAK2)
"C=CC(=O)N1CC(CCn2c(=O)ccc3cnc(Nc4cccc(CN5CCN(C(=O)N(C)C)CC5)c4)nc32)C1 [Example 5, 4-(3-((8-(2-(1-acryloylazetidin-3-yl)ethyl)-7-oxo-7,8-dihydropyrido[2,3-d]pyrimidin-2-yl)amino)benzyl)-N,N-dimethylpiperazine-1-carboxamide]",A (A represents a value below 5×10^−6 cm/sec),statistically significant decrease,statistically significant decrease,A (A represents a pKi value≥10 (Ki≤0.1 nM)),A (A represents a value of 3 or above),E (E represents a pKi value of 7 or below (Ki of 100 nM or above))
"C=CC(=O)N1CC(CCn2c(=O)ccc3cnc(Nc4ccc(N5CCN(C(C)=O)CC5)cc4)nc32)C1 [Example 2, 2-((4-(4-acetylpiperazin-1-yl)phenyl)amino)-8-(2-(1-acryloylazetidin-3-yl)ethyl)pyrido[2,3-d]pyrimidin-7(8H)-one]",A (A represents a value below 5×10^−6 cm/sec),statistically significant decrease,–,A (A represents a pKi value≥10 (Ki≤0.1 nM)),A (A represents a value of 3 or above),E (E represents a pKi value of 7 or below (Ki of 100 nM or above))
"C=CC(=O)N1CCN(CCn2c(=O)ccc3cnc(Nc4ccc(N5CCN(C(=O)CCSC)CC5)cc4)nc32)CC1 [Example 4, 8-(2-(4-acryloylpiperazin-1-yl)ethyl)-2-((4-(4-(3-(methylthio)propanoyl)piperazin-1-yl)phenyl)amino)pyrido[2,3-d]pyrimidin-7(8H)-one]",A (A represents a value below 5×10^−6 cm/sec),statistically significant decrease,–,B (B represents pKi value between 9 and 10 (Ki between 1 nM and 0.1 nM)),A (A represents a value of 3 or above),E (E represents a pKi value of 7 or below (Ki of 100 nM or above))
"C=CC(=O)N1CCN(CCn2c(=O)ccc3cnc(Nc4cnn(C)c4)nc32)[C@@H](CC)C1 [Example 12, (S)-8-(2-(4-acryloyl-2-ethylpiperazin-1-yl)ethyl)-2-((1-methyl-1H-pyrazol-4-yl)amino)pyrido[2,3-d]pyrimidin-7(8H)-one]",B (B represents a value between 5×10^−6 and 10×10^−6 cm/sec),statistically significant decrease,–,B (B represents pKi value between 9 and 10 (Ki between 1 nM and 0.1 nM)),A (A represents a value of 3 or above),E (E represents a pKi value of 7 or below (Ki of 100 nM or above))
"C=CC(=O)N1CC(CCn2c(=O)ccc3cnc(Nc4ccc(N5CCN(C(=O)CSC)CC5)cc4)nc32)C1 [Example 13, 8-(2-(1-acryloylazetidin-3-yl)ethyl)-2-((4-(4-(2-(methylthio)acetyl)piperazin-1-yl)phenyl)amino)pyrido[2,3-d]pyrimidin-7(8H)-one]",A (A represents a value below 5×10^−6 cm/sec),statistically significant decrease,statistically significant decrease,B (B represents pKi value between 9 and 10 (Ki between 1 nM and 0.1 nM)),A (A represents a value of 3 or above),E (E represents a pKi value of 7 or below (Ki of 100 nM or above))
"C=CC(=O)N1CC(CCn2c(=O)ccc3cnc(Nc4cccc(N5CCN(C(=O)CCSC)CC5)c4)nc32)C1 [Example 7, 8-(2-(1-acryloylazetidin-3-yl)ethyl)-2-((3-(4-(3-(methylthio)propanoyl)piperazin-1-yl)phenyl)amino)pyrido[2,3-d]pyrimidin-7(8H)-one]",B (B represents a value between 5×10^−6 and 10×10^−6 cm/sec),statistically significant decrease,–,B (B represents pKi value between 9 and 10 (Ki between 1 nM and 0.1 nM)),A (A represents a value of 3 or above),E (E represents a pKi value of 7 or below (Ki of 100 nM or above))
"C=CC(=O)N1CCN(CCn2c(=O)ccc3cnc(Nc4ccc(N5CCN(C)CC5)cc4)nc32)CC1 [Example 1, 8-(2-(4-acryloylpiperazin-1-yl)ethyl)-2-((4-(4-methylpiperazin-1-yl)phenyl)amino)pyrido[2,3-d]pyrimidin-7(8H)-one]",B (B represents a value between 5×10^−6 and 10×10^−6 cm/sec),statistically significant decrease,statistically significant decrease,B (B represents pKi value between 9 and 10 (Ki between 1 nM and 0.1 nM)),A (A represents a value of 3 or above),E (E represents a pKi value of 7 or below (Ki of 100 nM or above))
